Results taken from patent US20060083714A1, “Combination of a pde iv inhibitor and a tnf-alpha antagonist” (priority 2003, published 2006).

How the values were obtained:
PDE IV [1] = test: Inhibition of PDE isoenzymes: PDE IV (PDE4, cytosol of human neutrophils, cAMP substrate); assay type: biochemical
Procedure: PDE inhibition is then determined by the presence or absence of substrate degradation products. […] The relative ability of an inhibitory compound to slow or prevent the degradation of tritiated cyclic nucleotides is one test that is indicative of how well the compound in question selects one or more of each isoform to inhibit.
In practice, the in vitro selectivity of a PDE IV inhibitor may vary depending upon the condition under which the test is performed and on the inhibitors being tested. However, for the purposes of this specification, the selectivity of a PDE IV inhibitor can be measured as a ratio of the in vitro IC50 value for inhibition of any other isoform of the phosphodiesterase enzyme (Z) other than PDE IV, divided by the IC50 value for inhibition of PDE IV (PDE Z IC50/PDE IV IC50), where Z identifies any PDE other than PDE IV. As used herein, the term “IC50” refers to the concentration of a compound that is required to produce 50% inhibition of phosphodiesterase activity. […]
After preincubation for 5 min at 37° C., the reaction isstarted by the addition of substrate (cAMP or cGMP) and the assays are incubated for further 15 min at 37° C. […] The columns are elutedwith 2 ml of 30 mM ammonium formate (pH 6.0) and the eluate is counted for radioactivity. Results are corrected for blank values (measured in the presence of denatured protein) that are below 5% of total radioactivity. […]

PDE IV [2] = test system: T1, PDE IV; conditions: reported in Hatzelmann et al., JPET 297(1):267-279 (2001); read-out: IC50 for roflumilast activity on PDE IV; cited from earlier work
T1 construct: other: reported in Hatzelmann et al., JPET 297(1):267-279 (2001)

PDE I = conditions: reported in Hatzelmann et al., JPET 297(1):267-279 (2001); read-out: IC50 for roflumilast activity on PDE I; cited from earlier work

In the case of O=C(Nc1c(Cl)cncc1Cl)c1ccc(OC(F)F)c(OCC2CC2)c1 [roflumilast, 3-(cyclopropylmethoxy)-N-(3,5-dichloropyridin-4-yl)-4-(difluoromethoxy) benzamide], the “selectivity for PDE IV as compared with PDE V (PDE V IC50/PDE IV IC50)” value (PDE IV [1]; 8/0.0008) is given as “at least 10,000”, the “selectivity for PDE IV as compared with PDE I (PDE I IC50/PDE IV IC50)” value (PDE IV [1]; >10/0.0008) is given as “at least 12,500” and the IC50 (PDE IV [2]) is given as 0.8 nM. The IC50 (PDE I) was greater than 10000 nM.
